Assay results from patent publication US8030498B2, “Benzoylpyrazole compounds and herbicides containing them” (Ishihara Sangyo Kaisha, Ltd., priority 2005, dated 2011).

Tests used:
[1] = tested on: barnyardgrass (Echinochloa crus-galli L.); assay: Test Example 1: foliar treatment, growth inhibition rate, barnyardgrass; type: in vivo; details: visually observed 17th to 23rd day after application
Summary of the method: (§1)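 Seeds were sown in upland field soil in pots. At the target leaf stage (corn 2.0–3.5; greenfoxtail 1.0–3.0; rice 1.0–2.5; wheat 1.7–3.4), the formulated compound, diluted at a water volume of 500 L/ha with 0.1 vol % spreader, was applied by small sprayer. Plants were rated by eye on days 17–23.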

[2] = tested on: crabgrass (Digitaria sanguinalis L.); assay: Test Example 1: foliar treatment, growth inhibition rate, crabgrass; type: in vivo; details: visually observed 17th to 23rd day after application
Summary of the method: (§2)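 Visual scoring of growth inhibition, 0% (untreated) to 100% (complete kill), on days 17–23 following post-emergence spray of formulated compound in water (500 L/ha, 0.1 vol % spreader); plants treated at set leaf stages, e.g. corn 2.0–3.5, wheat 1.7–3.4.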

[3] = tested on: greenfoxtail (Setaria viridis L.); assay: Test Example 1: foliar treatment, growth inhibition rate, greenfoxtail; type: in vivo; details: visually observed 17th to 23rd day after application
Summary of the method: as §2

[4] = tested on: redroot pigweed (Amaranthus retroflexus L.); assay: Test Example 1: foliar treatment, growth inhibition rate, redroot pigweed; type: in vivo; details: visually observed 17th to 23rd day after application
Summary of the method: as §2

[5] = tested on: prickly sida (Sida spinosa L.); assay: Test Example 1: foliar treatment, growth inhibition rate, prickly sida; type: in vivo; details: visually observed 17th to 23rd day after application
Summary of the method: as §2

[6] = tested on: velvetleaf (Abutilon theophrasti MEDIC.); assay: Test Example 1: foliar treatment, growth inhibition rate, velvetleaf; type: in vivo; details: visually observed 17th to 23rd day after application
Summary of the method: as §1

[7] = tested on: rice (Oryza sativa L.); assay: Test Example 1: foliar treatment, growth inhibition rate, rice; type: in vivo; details: visually observed 17th to 23rd day after application
Summary of the method: as §2

[8] = tested on: wheat (Triticum spp.); assay: Test Example 1: foliar treatment, growth inhibition rate, wheat; type: in vivo; details: visually observed 17th to 23rd day after application
Summary of the method: as §2

[9] = tested on: corn (Zea mays L.); assay: Test Example 1: foliar treatment, growth inhibition rate, corn; type: in vivo; details: visually observed 17th to 23rd day after application
Summary of the method: as §2

[10] = tested on: soybean (Glycine max Merr.); assay: Test Example 1: foliar treatment, growth inhibition rate, soybean; type: in vivo; details: visually observed 17th to 23rd day after application
Summary of the method: as §2

[11] = tested on: barnyardgrass; assay: Test Example 2: soil application on the day after sowing, growth inhibition rate, barnyardgrass; type: in vivo, Echinochloa crus-galli L.; details: 250 g/ha active ingredient, observed on 19th to 24th day
Summary of the method: (§3)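 Pre-emergence soil treatment: one day post-sowing in upland soil, compound formulations at set active-ingredient rates were applied in 500 L/ha water. Visual rating of growth inhibition (0% untreated-equivalent to 100% complete kill) followed on days 19–24 after application.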

[12] = tested on: crabgrass; assay: Test Example 2: soil application on the day after sowing, growth inhibition rate, crabgrass; type: in vivo, Digitaria sanguinalis L.; details: 250 g/ha active ingredient, observed on 19th to 24th day
Summary of the method: as §3

[13] = tested on: greenfoxtail; assay: Test Example 2: soil application on the day after sowing, growth inhibition rate, greenfoxtail; type: in vivo, Setaria viridis L.; details: 250 g/ha active ingredient, observed on 19th to 24th day
Summary of the method: as §3

[14] = tested on: redroot pigweed; assay: Test Example 2: soil application on the day after sowing, growth inhibition rate, redroot pigweed; type: in vivo, Amaranthus retroflexus L.; details: 250 g/ha active ingredient, observed on 19th to 24th day
Summary of the method: as §3

[15] = tested on: prickly sida; assay: Test Example 2: soil application on the day after sowing, growth inhibition rate, prickly sida; type: in vivo, Sida spinosa L.; details: 250 g/ha active ingredient, observed on 19th to 24th day
Summary of the method: as §3

[16] = tested on: velvetleaf; assay: Test Example 2: soil application on the day after sowing, growth inhibition rate, velvetleaf; type: in vivo, Abutilon theophrasti MEDIC.; details: 250 g/ha active ingredient, observed on 19th to 24th day
Summary of the method: as §3

[17] = tested on: rice; assay: Test Example 2: soil application on the day after sowing, growth inhibition rate, rice; type: in vivo, Oryza sativa L.; details: 250 g/ha active ingredient, observed on 19th to 24th day
Summary of the method: as §3

[18] = tested on: wheat; assay: Test Example 2: soil application on the day after sowing, growth inhibition rate, wheat; type: in vivo, Triticum spp.; details: 250 g/ha active ingredient, observed on 19th to 24th day
Summary of the method: as §3

[19] = tested on: corn; assay: Test Example 2: soil application on the day after sowing, growth inhibition rate, corn; type: in vivo, Zea mays L.; details: 250 g/ha active ingredient, observed on 19th to 24th day
Summary of the method: as §3

[20] = tested on: soybean; assay: Test Example 2: soil application on the day after sowing, growth inhibition rate, soybean; type: in vivo, Glycine max Merr.; details: 250 g/ha active ingredient, observed on 19th to 24th day
Summary of the method: as §3

SMILES | Growth inhibition rate (%) Barnyardgrass [11] [%] | Growth inhibition rate (%) Crabgrass [12] [%] | Growth inhibition rate (%) Greenfoxtail [13] [%] | Growth inhibition rate (%) redroot pigweed [14] [%] | Growth inhibition rate (%) Prickly sida [15] [%] | Growth inhibition rate (%) Velvetleaf [16] [%] | Growth inhibition rate (%) Rice [17] [%] | Growth inhibition rate (%) Wheat [18] [%] | Growth inhibition rate (%) Corn [19] [%] | Growth inhibition rate (%) Soybean [20] [%] | Growth inhibition rate (%) Barnyardgrass ([1]; 31 g/ha active ingredient) [%] | Growth inhibition rate (%) Crabgrass ([2]; 31 g/ha active ingredient) [%] | Growth inhibition rate (%) Greenfoxtail ([3]; 31 g/ha active ingredient) [%] | Growth inhibition rate (%) redroot pigweed ([4]; 31 g/ha active ingredient) [%] | Growth inhibition rate (%) Prickly sida ([5]; 31 g/ha active ingredient) [%] | Growth inhibition rate (%) Velvetleaf ([6]; 31 g/ha active ingredient) [%] | Growth inhibition rate (%) Rice ([7]; 31 g/ha active ingredient) [%] | Growth inhibition rate (%) Wheat ([8]; 31 g/ha active ingredient) [%] | Growth inhibition rate (%) Corn ([9]; 31 g/ha active ingredient) [%] | Growth inhibition rate (%) Soybean ([10]; 31 g/ha active ingredient) [%] | other results
CCSC(=O)Oc1c(C(=O)c2ccc(S(C)(=O)=O)c(SC)c2Cl)cnn1C [compound 212] | 50 | 40 | 0 | 80 | 50 | 0 | 0 | 0 | 0 | 0 |  |  |  |  |  |  |  |  |  |  | Growth inhibition rate (%) Barnyardgrass ([1]; 63 g/ha active ingredient): 100%; Growth inhibition rate (%) Crabgrass ([2]; 63 g/ha active ingredient): 50%; Growth inhibition rate (%) Greenfoxtail ([3]; 63 g/ha active ingredient): 60%; Growth inhibition rate (%) redroot pigweed ([4]; 63 g/ha active ingredient): 100%; Growth inhibition rate (%) Prickly sida ([5]; 63 g/ha active ingredient): 40%; Growth inhibition rate (%) Velvetleaf ([6]; 63 g/ha active ingredient): 60%; Growth inhibition rate (%) Rice ([7]; 63 g/ha active ingredient): 30%; Growth inhibition rate (%) Wheat ([8]; 63 g/ha active ingredient): 0%; Growth inhibition rate (%) Corn ([9]; 63 g/ha active ingredient): 0%; Growth inhibition rate (%) Soybean ([10]; 63 g/ha active ingredient): 90%
CCSC(=O)Oc1c(C(=O)c2ccc(S(C)(=O)=O)c(OC)c2Cl)cnn1C [compound 214] | 100 | 100 | 100 | 90 | 90 | 90 | 100 | 0 | 0 | 20 |  |  |  |  |  |  |  |  |  |  | Growth inhibition rate (%) Barnyardgrass ([1]; 63 g/ha active ingredient): 98%; Growth inhibition rate (%) Crabgrass ([2]; 63 g/ha active ingredient): 95%; Growth inhibition rate (%) Greenfoxtail ([3]; 63 g/ha active ingredient): 90%; Growth inhibition rate (%) redroot pigweed ([4]; 63 g/ha active ingredient): 100%; Growth inhibition rate (%) Prickly sida ([5]; 63 g/ha active ingredient): 70%; Growth inhibition rate (%) Velvetleaf ([6]; 63 g/ha active ingredient): 80%; Growth inhibition rate (%) Rice ([7]; 63 g/ha active ingredient): 90%; Growth inhibition rate (%) Wheat ([8]; 63 g/ha active ingredient): 0%; Growth inhibition rate (%) Corn ([9]; 63 g/ha active ingredient): 0%; Growth inhibition rate (%) Soybean ([10]; 63 g/ha active ingredient): 100%
CCSC(=O)Oc1c(C(=O)c2ccc(S(C)(=O)=O)c(OCCOC)c2Cl)cnn1C [compound 216] | 95 | 100 | 100 | 100 | 80 | 90 | 80 | 0 | 0 | 0 | 100 | 100 | 98 | 100 | 50 | 98 | 70 | 0 | 10 | 95 | 
CCSC(=O)Oc1c(C(=O)c2ccc(S(C)(=O)=O)c(OC3CCOC3)c2C)cnn1C (stereo not drawn) [compound 217] | 80 | 95 | 60 | 95 | 60 | 20 | 80 | 0 | 0 | 0 | 100 | 100 | 98 | 100 | 70 | 80 | 90 | 40 | 0 | 98 | 
CCSC(=O)Oc1c(C(=O)c2ccc(S(C)(=O)=O)c(OCCCOC)c2C)cnn1C [compound 218] | 90 | 80 | 90 | 100 | 50 | 30 | 80 | 0 | 0 | 0 | 100 | 100 | 95 | 100 | 70 | 90 | 98 | 10 | 0 | 95 | 
CCCSC(=O)Oc1c(C(=O)c2ccc(S(C)(=O)=O)c(OCCOC)c2C)cnn1C [compound 219] | 100 | 100 | 100 | 100 | 80 | 100 | 95 | 0 | 0 | 0 | 100 | 100 | 100 | 100 | 70 | 100 | 80 | 0 | 0 | 100 | 
CCC(C)SC(=O)Oc1c(C(=O)c2ccc(S(C)(=O)=O)c(C(=O)OC)c2Cl)cnn1CC (stereo not drawn) [compound 220] | 95 | 95 | 100 | 100 | 95 | 95 | 100 | 0 | 0 | 0 |  |  |  |  |  |  |  |  |  |  | Growth inhibition rate (%) Barnyardgrass ([1]; 63 g/ha active ingredient): 100%; Growth inhibition rate (%) Crabgrass ([2]; 63 g/ha active ingredient): 60%; Growth inhibition rate (%) Greenfoxtail ([3]; 63 g/ha active ingredient): 70%; Growth inhibition rate (%) redroot pigweed ([4]; 63 g/ha active ingredient): 100%; Growth inhibition rate (%) Prickly sida ([5]; 63 g/ha active ingredient): 90%; Growth inhibition rate (%) Velvetleaf ([6]; 63 g/ha active ingredient): 90%; Growth inhibition rate (%) Rice ([7]; 63 g/ha active ingredient): 80%; Growth inhibition rate (%) Wheat ([8]; 63 g/ha active ingredient): 0%; Growth inhibition rate (%) Corn ([9]; 63 g/ha active ingredient): 0%; Growth inhibition rate (%) Soybean ([10]; 63 g/ha active ingredient): 100%
CCSC(=O)Oc1c(C(=O)c2ccc(S(C)(=O)=O)c(OCCC3OCCO3)c2Cl)cnn1CC [compound 221] | 80 | 100 | 70 | 100 | 60 | 60 | 80 | 0 | 0 | 0 |  |  |  |  |  |  |  |  |  |  | Growth inhibition rate (%) Barnyardgrass ([1]; 63 g/ha active ingredient): 100%; Growth inhibition rate (%) Crabgrass ([2]; 63 g/ha active ingredient): 50%; Growth inhibition rate (%) Greenfoxtail ([3]; 63 g/ha active ingredient): 50%; Growth inhibition rate (%) redroot pigweed ([4]; 63 g/ha active ingredient): 80%; Growth inhibition rate (%) Prickly sida ([5]; 63 g/ha active ingredient): 40%; Growth inhibition rate (%) Velvetleaf ([6]; 63 g/ha active ingredient): 60%; Growth inhibition rate (%) Rice ([7]; 63 g/ha active ingredient): 20%; Growth inhibition rate (%) Wheat ([8]; 63 g/ha active ingredient): 0%; Growth inhibition rate (%) Corn ([9]; 63 g/ha active ingredient): 0%; Growth inhibition rate (%) Soybean ([10]; 63 g/ha active ingredient): 100%
C#CCOc1c(S(C)(=O)=O)ccc(C(=O)c2cnn(C)c2OC(=O)SCC)c1C [compound 222] | 95 | 100 | 80 | 100 | 50 | 80 | 90 | 0 | 0 | 0 | 90 | 70 | 80 | 100 | 30 | 60 | 70 | 0 | 0 | 100 | 
